Earlier results, collected in patent US20250387447A1, “Herbal composition for use in the improvement of physical and mental health recovery and maintenance, including the improvement of cognitive function or prevention of cognitive decline” (Conka Elite Ltd, priority 2022, published 2025).

System: neurons

COc1cc(/C=C/C(=O)CC(=O)/C=C/c2ccc(O)c(OC)c2)ccc1O [curcumin]
neuron death caused by oxygen-glucose deprivation: protects neurons from death | expression of thioredoxin (Nrf2 pathway): activate the expression of thioredoxin
